Measured values from ChEMBL document CHEMBL3580595, “Design, synthesis and biological evaluation of novel trimethylpyrazine-2-carbonyloxy-cinnamic acids as potent cardiovascular agents” (Medchemcomm, 2014).

Tests used:
[1] = Cytoprotective activity against H2O2-induced cytotoxicity in human EAhy926 cells at 50 uM pre-incubated for 24 hrs before H2O2 challenge for 12 hrs by MTT assay; format: functional, EA.hy 926
[2] = Cytoprotective activity against H2O2-induced cytotoxicity in human EAhy926 cells at 12.5 uM pre-incubated for 24 hrs before H2O2 challenge for 12 hrs by MTT assay; format: functional, EA.hy 926
[3] = Anti-platelet activity in rabbit platelet-rich plasma assessed as inhibition of ADP-induced platelet aggregation at 25 uM incubated for 5 mins at 37 degC by aggregometry; format: functional; conditions: Oryctolagus cuniculus
[4] = Anti-platelet activity in rabbit platelet-rich plasma assessed as inhibition of ADP-induced platelet aggregation incubated for 5 mins at 37 degC by aggregometry; format: functional; conditions: Oryctolagus cuniculus
[5] = Cytoprotective activity against H2O2-induced cytotoxicity in human EAhy926 cells pre-incubated for 24 hrs before H2O2 challenge for 12 hrs by MTT assay; format: functional, cell-based; conditions: EA.hy 926
[6] = Cytoprotective activity against H2O2-induced cytotoxicity in human EAhy926 cells at 25 uM pre-incubated for 24 hrs before H2O2 challenge for 12 hrs by MTT assay; format: functional, EA.hy 926
[7] = Potency index, ratio of EC50 for lipoic acid to EC50 for test compound for cytoprotective activity against H2O2-induced cytotoxicity in human EAhy926 cells pre-incubated for 24 hrs before H2O2 challenge for 12 hrs by MTT assay; format: functional
[8] = Cytoprotective activity against H2O2-induced cytotoxicity in human EAhy926 cells at 100 uM pre-incubated for 24 hrs before H2O2 challenge for 12 hrs by MTT assay; format: functional, EA.hy 926
[9] = Anti-platelet activity in rabbit platelet-rich plasma assessed as inhibition of ADP-induced platelet aggregation at 50 uM incubated for 5 mins at 37 degC by aggregometry; format: functional; conditions: Oryctolagus cuniculus
[10] = Anti-platelet activity in rabbit platelet-rich plasma assessed as inhibition of ADP-induced platelet aggregation at 100 uM incubated for 5 mins at 37 degC by aggregometry; format: functional; conditions: Oryctolagus cuniculus
[11] = Anti-platelet activity in rabbit platelet-rich plasma assessed as inhibition of ADP-induced platelet aggregation at 12.5 uM incubated for 5 mins at 37 degC by aggregometry; format: functional; conditions: Oryctolagus cuniculus

SMILES	Activity [1]	Activity [2]	inhibition at 25 µM [3]	IC50 [4]	EC50 [5]	Activity [6]	Ratio EC50 [7]	Activity [8]	inhibition at 50 µM [9]	inhibition at 100 µM [10]	inhibition at 12.5 µM [11]
CCOC(=O)/C=C/c1ccc(OC(=O)c2nc(C)c(C)nc2C)c(O)c1	210.8%	75.7%	36.4%	77.4 µM	1.7 µM	207%	40	375.3%	37.9%	58.4%	22%
CCOC(=O)/C=C/c1ccc(OC(=O)c2nc(C)c(C)nc2C)cc1	62.6%	42.7%	39.1%	24.4 µM	34.9 µM	58.8%		96.1%	32.2%	20.5%	68%
